Laboratory results: patent US10947276B2, “Cell penetrating peptides with improved internalization properties” (SORBONNE UNIVERSITE, priority 2016, dated 2021)

Experiments:
[1] = Peptide stability in human serum by MALDI-TOF mass spectrometry; type: in vitro ADME; details: for stability (integrity) compared to control Mut3DPT: 37° C., human serum/plasma, 0 to 24 h
Method: A) Mut3DPT, Mut4DPT, Mut5DPT, Mut6DPT and Mut7DPT peptides were incubated at 37° C. in human serum for different periods of time and their integrity (percentage of intact peptide) were analyzed by mass spectrometry. Similar results were obtained in two independent experiments.
FIG. 5. Mut3DPT, Tat, Penetratin and R8 were treated and analyzed as above. The stability is referred to the intensity of the peaks.
Mut3DPT, as well as Mut4DPT, Mut5DPT, Mut6DPT and Mut7DPT were incubated at 37° C. in 250 μl human serum for different periods of time. Samples were collected and peptide degradation stopped by freezing. Peptides were extracted from collected samples using the ProteoMiner Protein Enrichment System (Bio-Rad). Peptide integrity (percentage of intact peptide) was analyzed by mass spectrometry using a MALDI-TOF (Brücker Autoflex II) following their standard protocols. Every measurement was performed by triplicate. MS data were analyzed using appropriate software (Clinprot tools, Flex analysis, Brücker).
The inventors have analyzed whether these new generated peptides have enhanced stability in plasma, compared to the control Mut3DPT. The peptides were incubated for different periods of time (from 0 to 24 h) at 37° C. with human plasma and their stability was analyzed by mass spectrometry (MS). […] The synthetic peptides Mut5DPT, Mut6DPT and Mut7DPT are also very stable to proteases degradation, compared to the control peptide Mut3DPT. Taken together, we can conclude that there is no modification of the stability upon 24 h of incubation with human serum.

MCF-7 cells = test: Intracellular detection of FITC-labelled peptides by FACS; type: cell-based, human; details: MCF-7 (similar in Jurkat); for kinetic of internalization compared to control peptide Mut3DPT: 50 μM, different periods of time
Method: (§1) MCF-7 or Jurkat cell lines were cultured in the presence or in the absence of Mut3DPT (Panel A), Mut4DPT (Panel B), Mut5DPT (Panel C), Mut6DPT (Panel D) or Mut7DPT (Panel E) at 50 μM for different periods of time. The intensity of the FITC fluorescence due to the shuttle internalization was measured by FACS. The results presented in the figure correspond to MCF-7 cells. Similar results were obtained using Jurkat cell line.
as §1, with “different concentrations” for “50 μM”, “4 h.” for “different periods of time.”
Jurkat and MCF-7 cells were incubated with different concentrations of FITC-labeled peptides, then washed and analyzed by FACS in order to detect the intensity of fluorescence into the cells. Similarly, Jurkat and MCF-7 cells were incubated with a given peptide concentration at different times and after washing, cells were analyzed by FACS to estimate the intensity of fluorescence into the cells.
The inventors incubated the cells (Jurkat and MCF-7) with the peptides at different concentrations and different times and analyzed the intensity of the fluorescence into the cells by FACS. The result of kinetic of time incubation is shown on FIG. 1 and the kinetic of peptide concentration is shown on FIG. 2.

MDA-MB231 cell line = test: Toxicity of CPP-NLS peptides by FACS; details: 25 and 50 μM, 4 h of incubation
MCF-7, PBMC = test: Internalization of shuttles by fluorescence microscopy, mass spectrometry and flow cytometry; type: cell-based, human; details: MCF-7 25 μM (microscopy), 100 μM (MS); B cells of PBMC 100 μM 4 h
Method: A) MCF-7 cells were grown on coverslips and incubated 1 h at 37° C. with 25 μM of FITC-labelled peptides. Cells were washed 3 times with PBS, fixed with 4% paraphormaldeyde (PFA) and analyzed by fluorescence microscopy. Quantification of the microscopy images is shown. B) MCF7 were grown as above and incubated for different periods of time at 37° C. with 25 μM of FITC-labelled shuttles. Cells were treated as above and analyzed by fluorescence microscopy.
MCF-7 cells were cultured 4 h with 100 μM of each shuttle. After several washing steps, they were lysed and the extracts centrifuged. The intracellular peptide was detected by MS. Pure peptide was used as a control of molecular weight.
A) B cells were isolated (anti-hCD19-APC antibody) from peripheral blood mononuclear cells (PBMC) of healthy donors (HD) or B) chronic lymphocytic leukemia (CLL) patients. Cells were incubated 4 h with 100 μM of the FITC-labelled shuttles. The mean fluorescence intensity was detected by flow cytometry. Non treated cells were used as control.
Peripheral blood mononuclear cells from healthy (HD) donors or chronic lymphocytic leukaemia patients (CLL) were treated with FITC-labelled peptides and them, cells were harvested and washed twice with PBS to remove the extracellular unbound peptide. FITC fluorescence intensity of internalized peptide was measured by flow cytometry (BD Biosciences) by acquiring 10,000 live cells. B cells were selected with anti hCD19-APC labelled antibody. Experiments were carried out three times in duplicate. Untreated cells were used as control.
(§2) For intracellular localization of FITC-labelled peptides, MDA-MB231 or MCF7 cells were seeded in an 8-well Labtek (Thermo Fischer) at a density of 2×10^4 cells/well. Cells were treated with different concentrations of FITC-labelled peptides for different times. Cells were fixed with 4% of formaldehyde for 15 min at room temperature. Samples were washed twice with PBS and mounted in mounting solution containing DAPI. Images were captured with a fluorescence microscopy (Olympus Japan) using 63× magnification objective.
To detect the internalization of the peptides, breast cancer cell line MCF-7 cells were seeded in a 6-well plate at a density of 1×10^6 cells/well in DMEM medium supplemented with 10% FCS. Cells were treated with 100 μM of each shuttle for 4 h at 37° C., then cells were washed once with PBS. Cell pellet was collected by detaching with Trypsin EDTA following several washing step with PBS. Cells were resuspended in lysis buffer (Tris-HCl 50 mM, NaCl 20 mM, pH 8.0, supplemented with protease inhibitors) and lysed with Glass/Teflon potter (Elvehjem homogenizers), then centrifuged for 20 min at 16,000 g at 4° C. The peptides in the supernatant were concentrated with Ziptips (Millpore, ZTC18S096) according to the manufacture's protocol. The internalization of peptide was detected by mass spectrometry (MS) using a MALDI-TOF (Brucker Autoflx II). MS data were analyzed using appropriate software (Clinprot tools, Flex analysis, Brucker).
The inventors incubated the cells (MCF-7, PBMC) with the peptides at different concentrations (respectively 25 μM, and 100 μM) and analyzed the presence of the shuttles into the cells by fluorescence microscopy, mass spectrometry (MS) and flow cytometry.

MDA-MB231 cells [2] = test: Intracellular localization of FITC-labelled peptides by fluorescence microscopy; type: cell-based, human; details: 30 μM, 4 h
Method: MDA-MB231 cells (3×10^4 cells/ml) were grown on cover slips and incubated 4 h with 30 μM of FITC-labelled peptides. Cells were washed 3 times with PBS, fixed with 4% paraformaldeyde (PFA) and analyzed by fluorescence microscopy. Cells treated with mut7DPT-FITC were used as control.
MDA-MB231 cells (3×10^4 cells/ml) were grown on cover slips and incubated with 30 μM of peptide for different periods of time. Cells were washed 3 times with PBS, fixed with 4% PFA and analyzed by fluorescence microscopy.
MDA-MB231 cells (3×10^4 cells/ml) were incubated in cover slips for 3 h with 15 μM of the FITC-labelled peptides associated to a cargo (TEAD or YAP peptides). Cells were washed 3 times with PBS, fixed with 4% PFA and analyzed by fluorescence microscopy.
as §2, with “was” for “or MCF7 cells were”, “3×10^4” for “2×10^4”, “fixed or not” for “fixed”

MDA-MB231 cells [3] = test: Apoptosis by Annexin V-FITC staining, shuttles associated to TEAD cargo; type: cell-based, human; details: 10 and 25 μM, 4 h or 24 h
Method: MDA-MB231 cells (5×10^4 cells/ml) were cultured in the presence of different concentrations of shuttles or nuclear localization shuttles associated to the cargo TEAD for 4h or 24h (Non-treated, Panel A; Mut3DPT-TEAD, Panel B; NLS18, Panel C; NLS23, Panel D; NLS18 TEAD, Panel E, NLS23 TEAD, Panel F). Apoptosis was estimated by Annexin V-FITC staining. Cells treated with shuttle without cargo or nuclear localisation signal (NLS) were used as control. Standard deviation is shown.
The apoptosis induction of the different shuttles associated to a cargo (TEAD and YAP binding sites) was analyzed by annexinV-FITC staining (e Biosciences). Human breast cancer cell line MDA-MB231 was treated with different concentrations of peptide for 4 h and 24 h. After the treatment, cells were harvested, washed and treated according to the manufacturer protocol. The level of apoptosis was measured by flow cytometry (BD Biosciences, FACS Canto.
We further analyzed whether the weak apoptotic effect of the mut3DPT-TEAD peptide was increased in the new generated tri-functional peptides. Cells were cultured for 4 h or 24 h with 10 and 25 μM of NLS-18 or NLS-23 and apoptosis estimated by Annexin staining (FIG. 16). The association of TEAD interfering peptide to the NLS18 or NLS23 peptides strongly increases the apoptotic effect, compared to the control peptide.

Row | Compound | time to plateau of internalization (MCF-7 cells; 50 μM FITC-labelled peptide) | stability (integrity) compared to control Mut3DPT [1] | internalization compared to the control peptide Mut3DPT (MCF-7, PBMC) | internalization, ranking among the new peptides (MCF-7, PBMC) | kinetic of internalization compared to control peptide Mut3DPT (MCF-7 cells) | further results
1 | N=C(N)NCCC[C@H](NC(=O)[C@H](CCCNC(=N)N)NC(=O)[C@H](CCCNC(=N)N)NC(=O)[C@H](CCCNC(=N)N)NC(=O)[C@H](CCCNC(=N)N)NC(=O)[C@H](CCCNC(=N)N)NC(=O)[C@H](CCCNC(=N)N)NC(=O)[C@@H](N)CCCNC(=N)N)C(=O)O [Peptide R8, reference compound] | – | – | – | – | – | degradation compared to control Mut3DPT ([1]; 6 h incubation with human serum at 37° C.): stronger degradation; degradation ([1]; 24 h incubation with human serum): extensively degraded
2 | KKKKKWKKWKKK (Shuttle peptide Mut7DPT) | 30 min | very stable | better internalization | a better internalization | – | toxicity (MDA-MB231 cell line): none of the peptides show toxicity; nuclear staining (MDA-MB231 cells [2]): does not show nuclear staining
3 | KKWKKWKKWKK (Shuttle peptide Mut5DPT) | – | very stable | better internalization | – | better internalization | –
4 | RRWRRWRRWRR (Shuttle peptide Mut6DPT) | 15 min | very stable | better internalization | a better internalization | rapidly internalized | share of the total fluorescence achieved one minute after incubation (MCF-7 cells; 50 μM FITC-labelled peptide, 1 min): Around 50%
5 | VKKKKIKAEIKI-RLQLVEFSAFVEPPDAVD (VKKKKIKAEIKIRLQLVEFSAFVEPPDAVD; Mut3DPT-TEAD) | – | – | – | – | – | apoptotic effect (MDA-MB231 cells [3]): weak
6 | VKKWKIKWWIKI (shuttle peptide Mut4DPT) | – | as stable as the parental peptide | better internalization | – | better internalization | –
